Measured values: ChEMBL document CHEMBL4402519, “The Mediterranean Diet as source of bioactive compounds with multi-targeting anti-cancer profile” (Eur J Med Chem, 2019)
Converted amounts (≈) assume the structure as drawn.

Assays:
HL-60 = assay: Growth inhibition of human HL60 cells after 72 hrs by MTT assay; format: functional, cell-based; conditions: HL-60, 72 h
PC-3 [1] = assay: Antiproliferative activity against human PC3 cells after 24 hrs by MTT assay; format: functional, cell-based; conditions: PC-3, 24 h
PC-3 [2] = assay: Antiproliferative activity against human PC3 cells after 48 hrs by MTT assay; format: functional, cell-based; conditions: PC-3, 48 h
COLO 205 [3] = assay: Induction of apoptosis in human COLO205 cells after 24 hrs; format: functional, cell-based; conditions: COLO 205, 24 h
COLO 205 [4] = assay: Induction of apoptosis in human COLO205 cells after 24 hrs relative to control; format: functional

| IC50 (HL-60) | SMILES | further results |
| --- | --- | --- |
| 0.01 to 0.94 µg/mL (≈ 0.0249 to 2.34 µM) | COc1ccc(-c2cc(=O)c3c(OC)c(OC)c(OC)c(OC)c3o2)cc1OC [NOBILETIN] |  |
| 0.01 to 0.94 µg/mL (≈ 0.0269 to 2.52 µM) | COc1ccc(-c2cc(=O)c3c(OC)c(OC)c(OC)c(OC)c3o2)cc1 [TANGERETIN] |  |

The remaining lines, values behind:

| SMILES | IC50 (HL-60) | further results |
| --- | --- | --- |
| O=C1c2c(O)cc(O)cc2O[C@H](c2ccc(O)c(O)c2)[C@H]1O [(+)-TAXIFOLIN] | 0.01 to 0.94 µg/mL (≈ 0.0329 to 3.09 µM) |  |
| COc1ccc([C@@H]2CC(=O)c3c(O)cc(O)cc3O2)cc1O [HESPERETIN] |  | IC50 (PC-3 [1]): 90 µM; IC50 (PC-3 [2]): 40 µM |
| O=c1c(O)c(-c2ccc(O)c(O)c2)oc2cc(O)cc(O)c12 [QUERCETIN] | 0.01 to 0.94 µg/mL (≈ 0.0331 to 3.11 µM) |  |
| CC(C)c1cc2c(c(O)c1O)[C@@]13CCCC(C)(C)[C@@H]1[C@H](OC3=O)[C@H]2O [ROSMANOL] |  | IC50 (COLO 205 [3]): 42 µM; Activity (COLO 205 [4]): 51% |
